Results from US11795510B2, “Identification of epigenomic reprogramming in cancer and uses thereof” (The Johns Hopkins University, priority 2016, dated 2023).
Entries after “also recorded” stand apart in the source; their conditions may differ.

Tests used:
[1] = system: global chromatin modifications (H3K9Me2/3, acetylation) in distant metastatic subclones (A38Lg); experiment: Western blots of histone modifications, distant metastatic subclones; format: cell-based, human
Method: Histones were acid extracted as described and western blots performed on 3.5 ug histones, which were checked by Ponceau stains prior to western blot to ensure equal loading. Densitometry was performed with ImageJ software. RNA was extracted with Trizol reagent (Life Technologies) and isopropanol precipitated. Genomic DNA was purified with MasterPure DNA extraction reagents (Epicenter). Immunohistochemistry, H&E staining, and immunofluorescence on formalin-fixed, paraffin-embedded (FFPE) tissue microarray sections (TMAs) were performed according to standard procedures.
(§1) RNAi experiments were performed with siRNA transfections (Oligofectamine, Life Technologies) using negative control siRNA (Sigma, SIC001) and pre-designed siRNA oligonucleotides against indicated genes in parallel (Sigma, PGD: SASI_Hs02 00334150, CDH2: SASI_Hs01_00153995, TOP2B: SASI_Hs02_00311874). siRNAs against mutant KRAS^G12V (CUACGCCAACAGCUCCAAC) (SEQ ID NO:1) were custom designed. Cells were incubated with siRNAs for 4 days after transfection and harvested. For drug treatments in 2-D, cells were grown to 70-80% confluency and treated for 3 days with 250 uM 6AN or DMSO negative control.

[2] = target: T1, 6-phosphogluconate dehydrogenase (PGD) (Homo sapiens, UniProt P52209); experiment: Steady state LC-HRMS metabolite profiling (glycolytic/PPP metabolites); format: cell-based
T1 construct: endogenous in cells; host or cells: low-passage rapid-autopsy PDAC cell lines (e.g. A38Lg, A38Per, A13 subclones)
T1 sequence (P52209 1-483): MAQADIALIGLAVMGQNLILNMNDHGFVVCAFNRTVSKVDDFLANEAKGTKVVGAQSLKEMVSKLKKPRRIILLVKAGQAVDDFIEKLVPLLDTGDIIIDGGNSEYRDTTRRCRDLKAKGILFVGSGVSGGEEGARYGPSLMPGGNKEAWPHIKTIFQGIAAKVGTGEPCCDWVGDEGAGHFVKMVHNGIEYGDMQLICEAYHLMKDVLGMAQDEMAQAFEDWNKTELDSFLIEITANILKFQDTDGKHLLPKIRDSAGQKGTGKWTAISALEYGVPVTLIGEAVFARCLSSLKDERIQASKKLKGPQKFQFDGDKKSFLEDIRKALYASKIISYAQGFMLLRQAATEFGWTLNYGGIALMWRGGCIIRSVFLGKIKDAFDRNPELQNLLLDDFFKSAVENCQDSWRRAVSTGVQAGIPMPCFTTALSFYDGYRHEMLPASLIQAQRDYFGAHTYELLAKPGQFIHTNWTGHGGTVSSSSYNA
Method: Tissue samples and cell lines were previously collected from PDAC patients by rapid autopsy, sequenced-validated, and monitored for mycoplasma as previously described. Low passage (2-17) rapid autopsy cell lines were cultured at 37° C. in DMEM with 10% fetal bovine serum (FBS, Gibco). For MTT assays, 15,000 cells/well were plated into 96 well plates in triplicate, treated 12 hours later, and assayed after 24 hr (glucose responses) or 6 days (chemotherapy) with CellTiter96 (Promega). For glucose response assays, nutrient-deplete DMEM (no glucose, glutamine, pyruvate, or serum) was used with addition of glucose as indicated. […] Cells were then washed with PBS, trypsinized, and viable cells counted with a hemocytometer. Glucose uptake and lactate secretion were measured with a YSI 7100 Bioanalyzer as described in the supplementary methods. […]
LC-HRMS Metabolite Profiling. LC-HRMS samples were prepared and analyzed as described in Liu et al. (Development and quantitative evaluation of a high-resolution metabolomics technology. Anal Chem 86, 2175-84 (2014)). […] Additional replicates were also included and counted at the end of the experiment for normalization. […] Pellets were reconstituted into a volume normalized to protein content (15 uL of 1:1 acetonitrile:methanol and 15 uL of water was used per 1 mg protein) and analyzed by LC-QE-MS. […]

[3] = system: distant metastatic and primary tumor precursor subclones; experiment: 3-D matrigel tumor forming assay, distant metastatic subclones; format: cell-based, human
Method: as §1
3-D matrigel assays were adapted from Cheung et al. (Control of alveolar differentiation by the lineage transcription factors GATA6 and HOPX inhibits lung adenocarcinoma metastasis. Cancer Cell 23, 725-38 (2013)). […] Well-formed tumors were then counted and representative photographs taken with an EVOS instrument. 3-D suspension tumorsphere assays were performed with 20,000 starting cells/well in ultra-low attachment 6 well plates as described, and tumors counted/photographed after at least 7 days of tumor growth.

[4] = system: distant metastatic subclones; experiment: 3-D suspension tumorsphere assay, distant metastatic subclones; format: cell-based, human
Method: (§2) 3-D matrigel assays were adapted from Cheung et al. (Control of alveolar differentiation by the lineage transcription factors GATA6 and HOPX inhibits lung adenocarcinoma metastasis. Cancer Cell 23, 725-38 (2013)). Briefly, 2-D cultures were trypsinized into single cells, 4,000cells/mL were suspended and thoroughly mixed in ice-cold DMEM containing 5% matrigel (BD systems) and 2% FBS (+/−DMSO/6AN as needed), 500 ul plated in quadruplicate into 24 well ultra-low attachment plates, and incubated for at least 7 days to allow tumor growth. Well-formed tumors were then counted and representative photographs taken with an EVOS instrument. 3-D suspension tumorsphere assays were performed with 20,000 starting cells/well in ultra-low attachment 6 well plates as described, and tumors counted/photographed after at least 7 days of tumor growth.

[5] = system: local-regional PDAC samples; experiment: 3-D suspension tumorsphere assay, local-regional PDACs; format: cell-based, human
Method: as §2

NC(=O)c1ccc(N)nc1 [6AN, 6-aminonicotinamide]
persistence of chromatin changes upon removal of 6AN from the media ([1]; 3d treatment followed by removal for an additional 3d): persisted
H3K27Me3 or H4K20Me3, western blot densitometry ([1]; across distant metastatic subclones): minimal or non-recurrent effects
reprogrammed chromatin modifications (H3K9Me2, acetylation), western blot densitometry ([1]; across distant metastatic subclones, 250 uM, 3 days): quantitatively reversed; also recorded: selectively reversed
acetylation (western blot) ([1]; distant metastatic subclones): decreased
global H3K9Me2 (western blot) ([1]; distant metastatic subclones): generally increased
reprogrammed chromatin state (global H3K9Me2/3 and acetylation, western blots) ([1]; paired lung metastasis A38Lg): reversed the reprogrammed chromatin state
steady state levels of glucose and metabolites directly upstream of the PGD reaction (6PG, G1,5L) [2]: dramatically elevated; also recorded: greatly increased
steady state levels of metabolites downstream of the PGD reaction [2]: corresponding reductions
tumor formation in 3D matrigel assays [3]: selectively and strongly blocked tumor formation; also recorded: ablated tumor formation
tumor formation in 3-D suspension tumorsphere assays [4]: selectively and strongly blocked tumor formation; also recorded: ablated tumor formation
tumor formation in 3-D suspension tumorsphere assays [5]: minimal effects; also recorded: did not interfere
